In patent US10081635B2, “Substituted N-(pyrrolidine-3-yl)-7H-pyrrolo[2,3-D]pyrimidine-4-amine as janus kinase inhibitor” (YANG JI CHEMICAL CO., LTD., priority 2014, dated 2018):

Assays:
Format in all cases: biochemical
[1] = molecular target: Human JAK3 (Homo sapiens (Human), UniProt P52333); assay: In vitro kinase inhibition test, JAK3 (33P-ATP filter scintillation); details: compound at 1 uM; read-out: JAK3 kinase-phosphorylation inhibitory level (% inhibition)
Procedure: (§1) 1. In Vitro Kinase Inhibition Test
(§2) Kinases used were human-derived JAK1, JAK2, JAK3, and TYK2 (Millipore, Germany). Each of these kinases was diluted with a suitable buffer solution as described below, and then mixed with reagents.
(§3) 3-morpholinopropane-1-sulfonic acid (MOPS) and EDTA were dissolved in distilled water at a concentration of 20 mM and 1 mM, respectively, and 100 uL of β-mercaptoethanol, 10 uL of Brij-35™, 5 mL of glycerol, and 100 mg of bovine serum albumin (BSA), each per 100 mL of the solution, were added to the solution, thereby preparing a JAK2, JAK3, and TYK2 dilution buffer solution.
(§4) Each compound was dissolved in a 100% DMSO solution at a 50 uM concentration. This solution was reacted with reagents in wells on a 96-well plate to reach a final concentration of 1 uM. Detailed experimental methods for each kinase are described below.
(§5) After reaction for about 40 minutes at room temperature, the reaction was stopped by adding 5 uL of a 3% (v/v) phosphoric acid solution.
(§6) In Tables 5 and 6, the numbers in the “Example” column, which are identification numbers of the examples, indicate the compounds synthesized in the corresponding examples, the values in the “JAK1”, “JAK2”, “JAK3”, and “TYK2” columns represent kinase-phosphorylation inhibitory levels as a percentage (%) of the compounds synthesized in the corresponding examples at a 1 uM concentration. In Tables 5 and 6, negative values substantially indicate no inhibitory effect.
(§7) The inhibitory levels (% inhibition) represent a percentage of reduction in phosphorylation activity in each test group with respect to the phosphorylation activity of a corresponding kinase in a negative control group lacking any of the compounds synthesized in the examples. % inhibition=[(Scintillation value of Test compound non-treatment group−Scintillation value of Test compound treatment group)/(Scintillation value of Test compound non-treatment group)]×100

[2] = molecular target: Human TYK2 (Homo sapiens (Human), UniProt P29597); assay: In vitro kinase inhibition test, TYK2 (33P-ATP filter scintillation); details: compound at 1 uM; read-out: TYK2 kinase-phosphorylation inhibitory level (% inhibition)
Procedure: as §1, §2, §3, §4, §5, §6, §7

[3] = molecular target: Human JAK1 (Homo sapiens (Human), UniProt P23458); assay: In vitro kinase inhibition test, JAK1 (33P-ATP filter scintillation); details: compound at 1 uM; read-out: JAK1 kinase-phosphorylation inhibitory level (% inhibition)
Procedure: as §1, §2
Tris(hydroxymethyl)aminomethane (TRIS) and ethylenediaminetetraacetic acid (EDTA) were dissolved in distilled water at a concentration of 20 mM and 0.2 mM, respectively, and 100 uL of β-mercaptoethanol, 10 uL of Brij-35™, and 5 mL of glycerol, each per 100 mL of the solution, were added to the solution, thereby preparing a JAK1 dilution buffer solution.
as §4
After reaction for about 40 minutes at room temperature, the reaction was stopped by adding 5 uL of a 3% (v/v) phosphoric acid solution. […] The methanol drying is a drying process using an azeotropic effect, wherein methanol is added into an aqueous solution for drying.
as §6, §7

[4] = molecular target: Human JAK2 (Homo sapiens (Human), UniProt O60674); assay: In vitro kinase inhibition test, JAK2 (33P-ATP filter scintillation); details: compound at 1 uM; read-out: JAK2 kinase-phosphorylation inhibitory level (% inhibition)
Procedure: as §1, §2, §3, §4, §5, §6, §7

Chain of Human JAK3 (P52333 whole entry): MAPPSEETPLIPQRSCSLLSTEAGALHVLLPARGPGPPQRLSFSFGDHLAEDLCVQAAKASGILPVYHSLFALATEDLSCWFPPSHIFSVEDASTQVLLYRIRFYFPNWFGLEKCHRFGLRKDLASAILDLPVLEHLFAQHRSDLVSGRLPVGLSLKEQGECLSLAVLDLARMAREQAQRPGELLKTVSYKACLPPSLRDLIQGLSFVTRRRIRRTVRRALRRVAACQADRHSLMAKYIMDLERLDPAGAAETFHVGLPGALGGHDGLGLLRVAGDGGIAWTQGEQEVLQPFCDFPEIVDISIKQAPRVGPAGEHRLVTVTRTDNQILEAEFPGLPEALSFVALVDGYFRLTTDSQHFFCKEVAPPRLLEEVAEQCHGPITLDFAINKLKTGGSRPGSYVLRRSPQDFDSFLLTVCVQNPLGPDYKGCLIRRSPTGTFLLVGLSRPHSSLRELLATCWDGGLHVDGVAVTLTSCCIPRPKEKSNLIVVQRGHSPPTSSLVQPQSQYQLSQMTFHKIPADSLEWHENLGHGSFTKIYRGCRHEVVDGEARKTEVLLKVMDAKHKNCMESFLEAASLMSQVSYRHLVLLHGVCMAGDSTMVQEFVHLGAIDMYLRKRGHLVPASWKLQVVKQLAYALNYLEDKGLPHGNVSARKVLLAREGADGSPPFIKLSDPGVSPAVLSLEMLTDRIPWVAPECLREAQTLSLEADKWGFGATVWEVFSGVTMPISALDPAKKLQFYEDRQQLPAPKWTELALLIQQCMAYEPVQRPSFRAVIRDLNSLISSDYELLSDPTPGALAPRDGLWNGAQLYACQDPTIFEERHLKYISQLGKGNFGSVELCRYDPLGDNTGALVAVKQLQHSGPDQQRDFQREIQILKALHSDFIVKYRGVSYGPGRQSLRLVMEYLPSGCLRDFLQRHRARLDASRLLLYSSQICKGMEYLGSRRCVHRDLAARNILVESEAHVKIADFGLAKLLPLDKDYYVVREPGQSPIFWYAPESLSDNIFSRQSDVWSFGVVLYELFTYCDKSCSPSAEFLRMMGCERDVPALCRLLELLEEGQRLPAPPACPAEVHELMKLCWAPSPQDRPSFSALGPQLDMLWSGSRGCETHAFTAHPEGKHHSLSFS
Chain of Human JAK2 (O60674 whole entry): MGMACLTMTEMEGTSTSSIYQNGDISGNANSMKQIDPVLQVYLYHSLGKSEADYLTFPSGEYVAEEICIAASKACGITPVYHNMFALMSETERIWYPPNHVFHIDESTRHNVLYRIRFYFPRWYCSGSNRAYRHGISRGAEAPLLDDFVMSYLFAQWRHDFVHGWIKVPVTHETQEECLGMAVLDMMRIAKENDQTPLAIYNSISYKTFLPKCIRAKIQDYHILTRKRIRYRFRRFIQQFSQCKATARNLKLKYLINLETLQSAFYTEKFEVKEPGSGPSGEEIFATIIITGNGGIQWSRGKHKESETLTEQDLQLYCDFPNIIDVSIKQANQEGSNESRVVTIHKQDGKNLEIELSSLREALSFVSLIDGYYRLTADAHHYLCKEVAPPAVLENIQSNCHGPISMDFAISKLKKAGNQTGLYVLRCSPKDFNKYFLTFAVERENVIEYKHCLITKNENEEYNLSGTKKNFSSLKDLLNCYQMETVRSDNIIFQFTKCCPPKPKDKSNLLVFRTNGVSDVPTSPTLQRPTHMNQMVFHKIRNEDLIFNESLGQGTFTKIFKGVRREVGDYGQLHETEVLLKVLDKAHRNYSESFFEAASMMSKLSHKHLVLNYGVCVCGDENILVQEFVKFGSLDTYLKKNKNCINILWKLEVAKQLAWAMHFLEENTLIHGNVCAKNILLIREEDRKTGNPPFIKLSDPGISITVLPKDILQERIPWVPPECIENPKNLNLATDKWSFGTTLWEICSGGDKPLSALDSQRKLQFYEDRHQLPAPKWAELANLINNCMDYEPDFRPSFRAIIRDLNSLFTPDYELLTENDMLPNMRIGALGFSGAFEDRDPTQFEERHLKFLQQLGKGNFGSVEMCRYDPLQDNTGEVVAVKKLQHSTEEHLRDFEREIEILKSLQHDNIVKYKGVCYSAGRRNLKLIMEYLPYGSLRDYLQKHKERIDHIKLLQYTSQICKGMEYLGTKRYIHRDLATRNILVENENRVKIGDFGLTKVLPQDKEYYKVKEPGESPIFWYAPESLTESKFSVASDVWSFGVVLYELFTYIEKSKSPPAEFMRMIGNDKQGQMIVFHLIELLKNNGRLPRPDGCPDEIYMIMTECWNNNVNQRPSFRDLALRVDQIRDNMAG
Chain of Human JAK1 (P23458 whole entry): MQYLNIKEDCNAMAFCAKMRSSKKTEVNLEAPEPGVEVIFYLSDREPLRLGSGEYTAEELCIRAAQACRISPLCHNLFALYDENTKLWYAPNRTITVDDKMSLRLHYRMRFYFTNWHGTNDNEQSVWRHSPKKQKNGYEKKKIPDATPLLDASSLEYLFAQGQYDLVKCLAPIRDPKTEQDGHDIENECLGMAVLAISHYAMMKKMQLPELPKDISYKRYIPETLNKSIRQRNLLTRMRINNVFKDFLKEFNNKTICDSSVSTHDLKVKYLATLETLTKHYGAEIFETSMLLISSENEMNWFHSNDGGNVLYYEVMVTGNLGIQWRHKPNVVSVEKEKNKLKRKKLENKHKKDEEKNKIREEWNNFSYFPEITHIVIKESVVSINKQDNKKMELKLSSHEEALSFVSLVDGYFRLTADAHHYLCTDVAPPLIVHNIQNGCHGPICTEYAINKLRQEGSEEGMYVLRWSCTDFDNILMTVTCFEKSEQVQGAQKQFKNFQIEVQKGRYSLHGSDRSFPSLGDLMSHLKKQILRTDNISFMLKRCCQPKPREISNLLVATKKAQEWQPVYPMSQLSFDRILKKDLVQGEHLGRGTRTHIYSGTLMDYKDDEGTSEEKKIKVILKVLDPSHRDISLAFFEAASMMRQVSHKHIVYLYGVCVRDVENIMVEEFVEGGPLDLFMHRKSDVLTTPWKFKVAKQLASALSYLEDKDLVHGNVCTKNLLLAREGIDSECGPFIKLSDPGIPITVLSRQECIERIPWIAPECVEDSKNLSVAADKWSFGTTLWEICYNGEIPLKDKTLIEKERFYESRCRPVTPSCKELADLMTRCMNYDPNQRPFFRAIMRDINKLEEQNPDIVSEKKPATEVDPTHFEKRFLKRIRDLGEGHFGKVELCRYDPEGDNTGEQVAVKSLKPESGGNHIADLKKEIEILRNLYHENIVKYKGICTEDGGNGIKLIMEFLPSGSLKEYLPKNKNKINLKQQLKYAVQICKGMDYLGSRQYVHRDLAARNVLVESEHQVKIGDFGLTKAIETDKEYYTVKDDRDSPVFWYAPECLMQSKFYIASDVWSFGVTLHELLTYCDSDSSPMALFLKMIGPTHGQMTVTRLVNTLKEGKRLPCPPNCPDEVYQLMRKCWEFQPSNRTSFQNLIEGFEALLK
Chain of Human TYK2 (P29597 whole entry): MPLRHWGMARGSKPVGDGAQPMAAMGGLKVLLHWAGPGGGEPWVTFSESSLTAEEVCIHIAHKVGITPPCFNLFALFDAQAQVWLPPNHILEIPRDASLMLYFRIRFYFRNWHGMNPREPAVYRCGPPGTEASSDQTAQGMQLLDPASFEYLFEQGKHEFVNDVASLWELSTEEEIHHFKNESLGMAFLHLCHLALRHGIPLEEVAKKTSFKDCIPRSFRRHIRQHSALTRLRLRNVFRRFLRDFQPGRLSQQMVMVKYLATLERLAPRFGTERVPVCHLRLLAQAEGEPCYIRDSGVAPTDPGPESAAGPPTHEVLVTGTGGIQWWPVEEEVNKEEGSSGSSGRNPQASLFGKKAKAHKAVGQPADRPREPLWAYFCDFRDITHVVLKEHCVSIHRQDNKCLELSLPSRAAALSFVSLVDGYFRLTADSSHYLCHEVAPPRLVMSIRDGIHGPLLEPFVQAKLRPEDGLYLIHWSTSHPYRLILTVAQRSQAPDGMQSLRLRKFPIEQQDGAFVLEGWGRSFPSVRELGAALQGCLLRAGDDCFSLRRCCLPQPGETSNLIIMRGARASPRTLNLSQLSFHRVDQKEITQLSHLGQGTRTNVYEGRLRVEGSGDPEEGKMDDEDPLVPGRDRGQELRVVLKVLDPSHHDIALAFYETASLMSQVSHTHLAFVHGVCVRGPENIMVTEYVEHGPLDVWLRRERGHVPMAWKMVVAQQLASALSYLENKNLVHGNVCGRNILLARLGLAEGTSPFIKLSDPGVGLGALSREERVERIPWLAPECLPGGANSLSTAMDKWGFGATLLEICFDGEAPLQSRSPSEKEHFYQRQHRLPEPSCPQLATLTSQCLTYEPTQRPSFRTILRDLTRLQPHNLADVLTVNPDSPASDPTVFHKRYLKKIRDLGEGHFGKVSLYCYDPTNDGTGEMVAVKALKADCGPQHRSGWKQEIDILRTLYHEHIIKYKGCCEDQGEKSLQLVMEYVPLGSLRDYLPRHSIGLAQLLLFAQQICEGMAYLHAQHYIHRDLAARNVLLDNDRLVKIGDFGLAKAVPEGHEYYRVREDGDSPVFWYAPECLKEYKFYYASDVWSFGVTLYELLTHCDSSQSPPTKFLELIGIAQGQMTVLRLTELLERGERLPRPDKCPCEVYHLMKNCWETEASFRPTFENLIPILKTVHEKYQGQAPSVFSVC

SMILES	inhibition at 1 µM [1] [%]	inhibition at 1 µM [2] [%]	inhibition at 1 µM [3] [%]	inhibition at 1 µM [4] [%]
CCCCN1C[C@H](N(C)c2ncnc3[nH]ccc23)C2(CC2)C1 [Example 1, (R)-N-(5-butyl-5-azaspiro[2.4]heptan-7-yl)-N-methyl-7H-pyrrolo[2,3-d]pyrimidin-4-amine]	8	-4	79	-14
CN(c1ncnc2[nH]ccc12)[C@H]1CN(C(=O)Nc2ccccc2)CC12CC2 [Example 23, (R)-7-(methyl(7H-pyrrolo[2,3-d]pyrimidin-4-yl)amino)-N-phenyl-5-azaspiro[2.4]heptane-5-carboxamide]	50	78	98	52
CN(c1ncnc2[nH]ccc12)C1CN(C(=O)CCN)CC12CC2 (centres unmarked) [Example 58, 3-amino-1-(7-(methyl(7H-pyrrolo[2,3-d]pyrimidin-4-yl)amino)-5-azaspiro[2.4]heptan-5-yl)propan-1-one]	-9	-4	34	2
CCC(=O)N1CC(N(C)c2ncnc3[nH]ccc23)C2(CC2)C1 (centres unmarked) [Example 52, 1-(7-(methyl(7H-pyrrolo[2,3-d]pyrimidin-4-yl)amino)-5-azaspiro[2.4]heptan-5-yl)propan-1-one]	17	20	58	-22
CN(c1ncnc2[nH]ccc12)C1CN(S(=O)(=O)CCN)CC12CC2 (centres unmarked) [Example 63, N-(5-((2-aminoethyl)sulfonyl)-5-azaspiro[2.4]heptan-7-yl)-N-methyl-7H-pyrrolo[2,3-d]pyrimidin-4-amine]	7	29	91	43

Other lines, results leading:

inhibition at 1 µM [1] [%]	inhibition at 1 µM [2] [%]	inhibition at 1 µM [3] [%]	inhibition at 1 µM [4] [%]	SMILES
3	7	76	-18	COCC(=O)N1CC(N(C)c2ncnc3[nH]ccc23)C2(CC2)C1 (centres unmarked) [Example 53, 2-methoxy-1-(7-(methyl(7H-pyrrolo[2,3-d]pyrimidin-4-yl)amino)-5-azaspiro[2.4]heptan-5-yl)ethan-1-one]
48	47	94	6	CN(c1ncnc2[nH]ccc12)[C@H]1CN(C(=O)Nc2ccc(F)cc2)CC12CC2 [Example 24, (R)-N-(4-fluorophenyl)-7-(methyl(7H-pyrrolo[2,3-d]pyrimidin-4-yl)amino)-5-azaspiro[2.4]heptane-5-carboxamide]
31	30	94	-3	CCCCNC(=O)N1C[C@H](N(C)c2ncnc3[nH]ccc23)C2(CC2)C1 [Example 21, (R)-N-butyl-7-(methyl(7H-pyrrolo[2,3-d]pyrimidin-4-yl)amino)-5-azaspiro[2.4]heptane-5-carboxamide]
65	93	99	95	CN(c1ncnc2[nH]ccc12)[C@H]1CN(S(=O)(=O)c2ccc(F)cc2)CC12CC2 [Example 39, (R)-N-(5-((4-fluorophenyl)sulfonyl)-5-azaspiro[2.4]heptan-7-yl)-N-methyl-7H-pyrrolo[2,3-d]pyrimidin-4-amine]
60	81	98	56	CN(c1ncnc2[nH]ccc12)[C@H]1CN(S(=O)(=O)N2CCCCC2)CC12CC2 [Example 50, (R)-N-methyl-N-(5-(piperidin-1-ylsulfonyl)-5-azaspiro[2.4]heptan-7-yl)-7H-pyrrolo[2,3-d]pyrimidin-4-amine]
16	15	90	-5	CN(c1ncnc2[nH]ccc12)[C@H]1CN(C(=O)NC2CCCCC2)CC12CC2 [Example 22, (R)-N-cyclohexyl-7-(methyl(7H-pyrrolo[2,3-d]pyrimidin-4-yl)amino)-5-azaspiro[2.4]heptane-5-carboxamide]
